The values that follow come from US20110002987A1, “Nicorandil Carriers with Enhanced Stability” (RIVOPHARM SA, priority 2008, published 2011).

A short description of this series: Stability tests of nicorandil tablets in alu/alu blister with desiccant system. It is filed as physicochemical. To be noted: stored in combination with molecular sieve instead of silica gel desiccant, 6 months. The method, then:
Two batches of Nicorandil tablets, 10 mg (batch 043/07) and 20 mg (batch 044/07) respectively, were prepared and packed according to the invention, in alu/alu blister together with a desiccant system.
Silica gel and molecular sieves were compared as desiccant systems and among molecular sieves, systems with different capacity of water absorption were considered.
043/07A: silica gel system
043/07B: 1 lozenge of desiccant plastic composition (Molecular Sieve 4A as provided by CSP technologies), containing molecular sieve 4 Å, a base polymer of polypropylene and an elastomer (moisture absorbed in mg: about 64)
043/07C: 5 lozenges of desiccant plastic composition (Molecular Sieve 4A as provided by CSP technologies), containing molecular sieve 4 Å, a base polymer of polypropylene and an elastomer (moisture absorbed in mg: about 320)
The blisters were placed on stability at the following conditions for 6 months:
25±2° C./60±5% relative humidity (RH)
Nicorandil is particularly sensitive to humidity. Two impurities (named rrt0.14 and rrt0.25) are generated when the product is exposed to moisture and therefore were monitored during stability.

In the case of `O=C(NCCO[N+](=O)[O-])c1cccnc1` [Nicorandil], the stability of nicorandil result is given as “more stable”. Further, the stability of nicorandil entry (listed as nicorandil) is reported as “improved stability”.
